Source: patent US5407932A, “Quinolone derivatives and antibacterial agents containing the same” (Wakunaga Seiyaku Kabushiki Kaisha, priority 1989, dated 1995)
Converted amounts (≈) assume the structure as drawn.

Legend:
[1] = Partition coefficient, phosphate buffer/n-octanol; assay type: physicochemical; details: n-octanol/50 mm phosphate buffer; 50 mM phosphate buffer (pH 7.4, μ=0.15)/n-octanol
Procedure: Following the method proposed by Akira Tsuji et al. in Antimicrob. Agents Chemother., 32, 190-194 (1988), 50 mM phosphate buffer (pH 7.4, μ=0.15)/n-octanol partition coefficients were measured.

[2] = test system: mice; assay: Interaction with fenbufen and toxicological study (coadministration test with fenbufen); assay type: in vivo
Procedure: Fenbufen and the quinolone compounds were each diluted with a solution of 0.5% methylcellulose.
A dose of 200 mg/kg of fenbufen was administered by oral route to groups of 10 mice (female, ICR, 18-23 g) 90 minutes before administration of the quinolone compounds by oral route, at a dose of 500 mg/kg. […] Following the 24 hours number of survival animals was noted.

[3] = test system: E. coli NIH JC-2 (IFO 12734); assay: Minimum inhibitory concentration, standard method of the Japan Society of Chemotherapy; assay type: cell-based; details: Escherichia coli, IFO12734
Procedure: (§1) With respect to certain representative compounds among the compounds [I] of the present invention, their minimum inhibitory concentrations (MIC; μg/ml) were measured in accordance with the standard method established by the Japan Society of Chemotherapy [CHEMOTHERAPY, 29(1), 76-79 (1981)]. The results are summarized in Table 1, in which the compound numbers are as shown in examples.

[4] = test system: P. aeruginosa (IFO 3445); assay: as above; assay type: cell-based; details: Pseudomonas aeruginosa, IFO3445
Procedure: as §1

[5] = test system: S. aureus 209 P (IFO 12732); assay: as above; assay type: cell-based; details: Staphylococcus aureus, IFO12732
Procedure: as §1

SMILES	MIC [3]	MIC [4]	MIC [5]	logD [1]	Mortality, number of dead mice ([2]; quinolone 500 mg/kg oral, 90 min after fenbufen 200 mg/kg oral, 24 hours)	Induction of convulsion, number of positive mice ([2]; quinolone 500 mg/kg oral, 90 min after fenbufen 200 mg/kg oral, during two hours)	Induction of convulsion, number of positive mice ([2]; mouse, in vivo)	Mortality, number of dead mice ([2]; mouse, in vivo)
C[C@H]1CN(c2c(F)c(N)c3c(=O)c(C(=O)O)cn(C4COC4)c3c2F)C[C@H]1N (single isomer, unassigned) [Compound 113, 5-Amino-7-{(-)-cis-3-amino-4-methylpyrrolidin-1-yl}-6,8-difluoro-1-(oxetan-3-yl)-1,4-dihydro-4-oxoquinoline-3-carboxylic acid]				-0.529				
C[C@H]1CN(c2c(F)c(N)c3c(=O)c(C(=O)O)cn(C4COC4)c3c2F)C[C@H]1N.O=S(=O)(O)O (single isomer, unassigned) [Compound 117, 5-Amino-7-{(-)-cis-3-amino-4-methylpyrrolidin-1-yl}-6,8-difluoro-1-(oxetan-3-yl) -1,4-dihydro-4-oxoquinoline-3-carboxylic acid sulfuric acid salt]					0/10	0/10		
CN1CCN(c2c(F)c(N)c3c(=O)c(C(=O)O)cn(C4COC4)c3c2F)CC1 [Compound 29]	0.1 µg/mL (≈ 0.254 µM)	0.78 µg/mL (≈ 1.98 µM)	0.78 µg/mL (≈ 1.98 µM)	-0.333			0/10	0/10
CN(C)C1CCN(c2cc3c(cc2F)c(=O)c(C(=O)O)cn3C2COC2)C1 (centres unmarked) [Compound 39]	0.39 µg/mL (≈ 1.04 µM)	6.25 µg/mL (≈ 16.6 µM)	1.56 µg/mL (≈ 4.16 µM)					
CN(C)CC1CCN(c2cc3c(cc2F)c(=O)c(C(=O)O)cn3C2COC2)C1 (centres unmarked) [Compound 40]	0.39 µg/mL (≈ 1 µM)	6.25 µg/mL (≈ 16 µM)	0.78 µg/mL (≈ 2 µM)					
NC1CN(c2cc3c(cc2F)c(=O)c(C(=O)O)cn3C2COC2)C1 [Compound 41]	0.78 µg/mL (≈ 2.34 µM)	6.25 µg/mL (≈ 18.8 µM)	12.5 µg/mL (≈ 37.5 µM)					
O=C(O)c1cn(C2COC2)c2cc(N3CCC(O)C3)c(F)cc2c1=O (centres unmarked) [Compound 42]	0.78 µg/mL (≈ 2.24 µM)	3.13 µg/mL (≈ 8.99 µM)	1.56 µg/mL (≈ 4.48 µM)					
CNC1CCN(c2c(F)cc3c(=O)c(C(=O)O)cn(C4COC4)c3c2F)C1 (centres unmarked) [Compound 44, 6,8-Difluoro-7-(3-methylaminopyrrolidin-1-yl)-1-(oxetan-3-yl)-1,4-dihydro-4-oxoquinoline-3-carboxylic acid]	0.39 µg/mL (≈ 1.03 µM)	1.56 µg/mL (≈ 4.11 µM)	1.56 µg/mL (≈ 4.11 µM)					
CCNC1CCN(c2c(F)cc3c(=O)c(C(=O)O)cn(C4COC4)c3c2F)C1 (centres unmarked) [Compound 45]	0.39 µg/mL (≈ 0.991 µM)	3.13 µg/mL (≈ 7.96 µM)	1.56 µg/mL (≈ 3.97 µM)					
CNCC1CCN(c2c(F)cc3c(=O)c(C(=O)O)cn(C4COC4)c3c2F)C1 (centres unmarked) [Compound 46]	0.78 µg/mL (≈ 1.98 µM)	3.13 µg/mL (≈ 7.96 µM)	0.1 µg/mL (≈ 0.254 µM)					
CCNCC1CCN(c2c(F)cc3c(=O)c(C(=O)O)cn(C4COC4)c3c2F)C1 (centres unmarked) [Compound 47]	0.78 µg/mL (≈ 1.91 µM)	6.25 µg/mL (≈ 15.3 µM)	0.2 µg/mL (≈ 0.491 µM)					
NC1CN(c2c(F)cc3c(=O)c(C(=O)O)cn(C4COC4)c3c2F)C1 [Compound 48]	0.39 µg/mL (≈ 1.11 µM)	3.13 µg/mL (≈ 8.91 µM)	1.56 µg/mL (≈ 4.44 µM)					
Nc1c(F)c(N2CC(N)C2)c(F)c2c1c(=O)c(C(=O)O)cn2C1COC1 [Compound 49]	0.78 µg/mL (≈ 2.13 µM)	3.13 µg/mL (≈ 8.54 µM)	1.56 µg/mL (≈ 4.26 µM)					
CNC1CCN(c2c(F)c(N)c3c(=O)c(C(=O)O)cn(C4COC4)c3c2F)C1 (centres unmarked) [Compound 50]	0.39 µg/mL (≈ 0.989 µM)	1.56 µg/mL (≈ 3.96 µM)	0.78 µg/mL (≈ 1.98 µM)					
CCNC1CCN(c2c(F)c(N)c3c(=O)c(C(=O)O)cn(C4COC4)c3c2F)C1 (centres unmarked) [Compound 51]	0.78 µg/mL (≈ 1.91 µM)	3.13 µg/mL (≈ 7.66 µM)	1.56 µg/mL (≈ 3.82 µM)					
CNCC1CCN(c2c(F)c(N)c3c(=O)c(C(=O)O)cn(C4COC4)c3c2F)C1 (centres unmarked) [Compound 52]	0.78 µg/mL (≈ 1.91 µM)	3.13 µg/mL (≈ 7.66 µM)	0.1 µg/mL (≈ 0.245 µM)					
CCNCC1CCN(c2c(F)c(N)c3c(=O)c(C(=O)O)cn(C4COC4)c3c2F)C1 (centres unmarked) [Compound 53]	0.2 µg/mL (≈ 0.473 µM)	3.13 µg/mL (≈ 7.41 µM)	0.1 µg/mL (≈ 0.237 µM)					
Nc1c(F)c(N2CCNCC2)c(F)c2c1c(=O)c(C(=O)O)cn2C1COC1 [Compound 55]	0.39 µg/mL (≈ 1.03 µM)	0.78 µg/mL (≈ 2.05 µM)	0.78 µg/mL (≈ 2.05 µM)					
COc1c(N2CCNCC2)c(F)cc2c(=O)c(C(=O)O)cn(C3COC3)c12 [Compound 81]	0.78 µg/mL (≈ 2.07 µM)	3.13 µg/mL (≈ 8.29 µM)	0.78 µg/mL (≈ 2.07 µM)					
CCn1cc(C(=O)O)c(=O)c2cc(F)c(N3CCNCC3)nc21 [Enoxacin, enoxacin, reference compound]							10/10	10/10

The next lines start with results.

MIC [3]	MIC [4]	MIC [5]	SMILES	logD [1]	Mortality, number of dead mice ([2]; quinolone 500 mg/kg oral, 90 min after fenbufen 200 mg/kg oral, 24 hours)	Induction of convulsion, number of positive mice ([2]; quinolone 500 mg/kg oral, 90 min after fenbufen 200 mg/kg oral, during two hours)	Induction of convulsion, number of positive mice ([2]; mouse, in vivo)	Mortality, number of dead mice ([2]; mouse, in vivo)
0.78 µg/mL (≈ 2.05 µM)	6.25 µg/mL (≈ 16.4 µM)	0.39 µg/mL (≈ 1.02 µM)	Nc1c(F)c(N2CCOCC2)c(F)c2c1c(=O)c(C(=O)O)cn2C1COC1 [Compound 58]					
0.39 µg/mL (≈ 1.02 µM)	3.13 µg/mL (≈ 8.21 µM)	0.39 µg/mL (≈ 1.02 µM)	Nc1c(F)c(N2CCC(O)C2)c(F)c2c1c(=O)c(C(=O)O)cn2C1COC1 (centres unmarked) [Compound 59]					
0.39 µg/mL (≈ 1.08 µM)	1.56 µg/mL (≈ 4.31 µM)	3.13 µg/mL (≈ 8.64 µM)	CN1CCN(c2nc3c(cc2F)c(=O)c(C(=O)O)cn3C2COC2)CC1 [Compound 61, 6-Fluoro-7-(4-methylpiperazin-1-yl)-1-(oxetan-3-yl)-1,4-dihydro-4-oxo-1,8-naphthylidine-3-carboxylic acid]					
0.2 µg/mL (≈ 0.574 µM)	0.39 µg/mL (≈ 1.12 µM)	1.56 µg/mL (≈ 4.48 µM)	NC1CCN(c2nc3c(cc2F)c(=O)c(C(=O)O)cn3C2COC2)C1 (centres unmarked) [Compound 65]					
0.39 µg/mL (≈ 1.04 µM)	3.13 µg/mL (≈ 8.32 µM)	3.13 µg/mL (≈ 8.32 µM)	CN(C)C1CCN(c2nc3c(cc2F)c(=O)c(C(=O)O)cn3C2COC2)C1 (centres unmarked) [Compound 66]					
0.39 µg/mL (≈ 1.04 µM)	1.56 µg/mL (≈ 4.14 µM)	3.13 µg/mL (≈ 8.32 µM)	CCNC1CCN(c2nc3c(cc2F)c(=O)c(C(=O)O)cn3C2COC2)C1 (centres unmarked) [Compound 69]					
1.56 µg/mL (≈ 4.14 µM)	6.25 µg/mL (≈ 16.6 µM)	0.39 µg/mL (≈ 1.04 µM)	CNCC1CCN(c2nc3c(cc2F)c(=O)c(C(=O)O)cn3C2COC2)C1 (centres unmarked) [Compound 70]					
0.39 µg/mL (≈ 1.17 µM)	3.13 µg/mL (≈ 9.39 µM)	0.2 µg/mL (≈ 0.6 µM)	O=C(O)c1cn(C2COC2)c2nc(N3CCCC3)c(F)cc2c1=O [Compound 72]					
0.78 µg/mL (≈ 2.22 µM)	6.25 µg/mL (≈ 17.8 µM)	0.78 µg/mL (≈ 2.22 µM)	O=C(O)c1cn(C2COC2)c2nc(N3CCSC3)c(F)cc2c1=O [Compound 73]					
0.39 µg/mL (≈ 1.03 µM)	1.56 µg/mL (≈ 4.13 µM)	0.2 µg/mL (≈ 0.53 µM)	COc1c(N2CCC(N)C2)c(F)cc2c(=O)c(C(=O)O)cn(C3COC3)c12 (centres unmarked) [Compound 76, 7-(3-Aminopyrrolidin-1-yl)-6-fluoro-8-methoxy-1-(oxetan-3-yl)-1,4-dihydro-4-oxoquinoline-3-carboxylic acid]					
1.56 µg/mL (≈ 3.85 µM)	12.5 µg/mL (≈ 30.8 µM)	1.56 µg/mL (≈ 3.85 µM)	COc1c(N2CCC(N(C)C)C2)c(F)cc2c(=O)c(C(=O)O)cn(C3COC3)c12 (centres unmarked) [Compound 77]					
1.56 µg/mL (≈ 3.72 µM)	25 µg/mL (≈ 59.6 µM)	0.1 µg/mL (≈ 0.238 µM)	CCNCC1CCN(c2c(F)cc3c(=O)c(C(=O)O)cn(C4COC4)c3c2OC)C1 (centres unmarked) [Compound 79]					
1.56 µg/mL (≈ 3.85 µM)	12.5 µg/mL (≈ 30.8 µM)	0.78 µg/mL (≈ 1.92 µM)	CCNC1CCN(c2c(F)cc3c(=O)c(C(=O)O)cn(C4COC4)c3c2OC)C1 (centres unmarked) [Compound 82]					
0.1 µg/mL (≈ 0.236 µM)	0.78 µg/mL (≈ 1.84 µM)	0.39 µg/mL (≈ 0.921 µM)	CN(C)NC1CCN(c2c(F)c(N)c3c(=O)c(C(=O)O)cn(C4COC4)c3c2F)C1 (centres unmarked) [Compound 96]					
0.78 µg/mL (≈ 1.97 µM)	6.25 µg/mL (≈ 15.8 µM)	3.13 µg/mL (≈ 7.9 µM)	Nc1c(F)c(N2CCN(O)CC2)c(F)c2c1c(=O)c(C(=O)O)cn2C1COC1 [Compound 107]					
0.78 µg/mL	3.13 µg/mL	0.78 µg/mL	Cl.N=CN1CCN(c2c(F)c(N)c3c(=O)c(C(=O)O)cn(C4COC4)c3c2F)CC1 [Compound 108, 5-Amino-6,8-difluoro-7-(4-formimidoylpiperazin-1-yl)-1-(oxetan-3-yl)-1,4-dihydro-4-oxoquinoline-3-carboxylic acid hydrochloride]					
0.39 µg/mL (≈ 0.925 µM)	3.13 µg/mL (≈ 7.43 µM)	0.78 µg/mL (≈ 1.85 µM)	CC(=N)N1CCN(c2c(F)c(N)c3c(=O)c(C(=O)O)cn(C4COC4)c3c2F)CC1 [Compound 109]					
0.78 µg/mL (≈ 1.91 µM)	6.25 µg/mL (≈ 15.3 µM)	1.56 µg/mL (≈ 3.83 µM)	N=CNC1CCN(c2c(F)c(N)c3c(=O)c(C(=O)O)cn(C4COC4)c3c2F)C1 (centres unmarked) [Compound 110]					
